Measurements taken from US12649790B2, “Proteins that bind SP17 including fully-human anti-SP17 antibodies” (Medicovestor, Inc., priority 2023, dated 2026).
Entries after “also recorded” stand apart in the source; their conditions may differ. *1 amine or outer side, *2 acyl side, *3 side chain or, on linkers, in order; H or OH if unused. Where a SMILES comes first, the peptide text is derived from it. [ ]: non-standard residue; d: D form. The star is where a group is joined. Exatecan = CC[C@@]1(O)C(=O)OCc2c1cc1n(c2=O)Cc2c-1nc1cc(F)c(C)c3c1c2[C@@H](N*)CC3; Hexanoyl(6-maleimido) = O=C1C=CC(=O)N1CCCCCC(=O)*; NHCH2OCH2CO = O=C(COCN[*:1])[*:2]

B1: chAB2: mouse-human chimeric anti-Sp17 monoclonal antibody: human VH/VL (SEQ ID NO: 3, 4) in mouse IgG2a heavy chain and mouse kappa light chain (antibody, V domains shown)
VH: QVQLQQSGAEVKKPGSSVKVSCKASGGTFSSYAISWVRQAPGQGLEWMGRIIPILGIANYAQKFQGRVTITADKSTSTAYMELSSLRSEDTAVYYCARPSEEVVAAYGAFDIWGQGTTVTVSS
VL: EIVLTQSPLSLPVRPGEPASISCRASQSLLRSDGFNYLDWYLQKPGQSPQLLVYLGSNRASGVPDRFSGSGSGTDFTLKISRVEAEDVGVYYCMQAVQTPYIFGQGTKLEIK
modifications: mouse IgG2a and kappa constant regions

Columns and labels:
SK-OV-3 cells = assay: Cytotoxicity assay (luminescence) against SK-OV-3 cells; conditions: 5 or 6 days
Description: SK-OV-3 cells were seeded at 1000, 2000, or 3000 cells per well and incubated overnight in advance of a cytotoxicity assay. […] The SK-OV-3 cells were treated with various concentrations of the SP17-AB2 antibody, the SP17-AB2-DXD immunoconjugate, a control human IgG4 antibody (hIgG4), or deruxtecan alone (DXD). The cells were incubated for 5 or 6 additional days, and cytotoxicity was then measured using a luminescence assay and EnVision™ plate reader (PerkinElmer, Massachusetts, United States).

ID8 cells = assay: Cytotoxicity assay against ID8 cells; type: cell-based, mouse; conditions: 3 days
Description: […] The cells were then treated with various concentrations of either the SP17-AB2 antibody, the SP17-AB2-DXD immunoconjugate, hIgG4, or deruxtecan alone. The cells were incubated for 3 additional days, and then cytotoxicity was measured.

[1] = biological target: T1, recombinant 6His-Sp17 protein (Homo sapiens, UniProt Q15506); assay: Surface plasmon resonance (Biacore T200) of chAB2 binding to recombinant 6His-Sp17; conditions: SPR
T1 sequence (Q15506 1-151): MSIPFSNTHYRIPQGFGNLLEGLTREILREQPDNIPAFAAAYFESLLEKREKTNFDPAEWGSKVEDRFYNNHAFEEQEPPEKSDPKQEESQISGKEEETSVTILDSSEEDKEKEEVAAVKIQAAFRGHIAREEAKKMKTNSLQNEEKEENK
Excerpt: The lines correspond, from highest to lowest, to fitted cycles for 300 nanomolar, 100 nanomolar, 50 nanomolar, 25 nanomolar, 12.5 nanomolar, and 6.25 nanomolar concentrations of 6His-Sp17.
(§1) The nucleotide sequences encoding the VH and VL regions of Example 1 were cloned into a mouse IgG2a heavy chain gene and a mouse kappa light chain gene, respectively, and expressed in CHO—S cells to produce a mouse-human chimeric antibody, which was named chAB2. Successful generation of the antibody was confirmed by SDS-PAGE and western blotting using anti-mouse heavy and light chain antibodies and recombinant Sp17 protein (FIGS. 2 & 3).

[2] = system: normal tissue microarray of 33 normal tissues; assay: Immunohistochemistry on a normal tissue microarray (specificity); conditions: 2-3 human donors per tissue
Description: The specificity of the chAB2 antibody for Sp17 was determined with immunohistochemistry on a normal tissue microarray, which consisted of 33 normal tissues obtained from 2-3 human donors per tissue. The normal tissues included brain, eye, adrenal gland, hypophyseal, thyroid, parathyroid, tonsil, thymus, spleen, heart, lung, larynx, esophagus, stomach, small intestine, colon, liver, pancreas, salivary gland, kidney, bone, skeletal, skin, peripheral nerve, mesothelial, breast, ovary, endometrium, cervix, testis, and prostate.

[3] = biological target: T2, mouse surface Sp17 protein expressed on the mouse ovarian cancer cell line ID8 (Mus musculus, UniProt Q62252); assay: Flow cytometry of ID8 cells labeled with chAB2 and anti-mouse FITC antibody; type: cell-based; conditions: relative to anti-mouse FITC antibody alone
T2 construct: endogenous in cells; host or cells: ID8 mouse ovarian cancer cell line
T2 sequence (Q62252 1-149): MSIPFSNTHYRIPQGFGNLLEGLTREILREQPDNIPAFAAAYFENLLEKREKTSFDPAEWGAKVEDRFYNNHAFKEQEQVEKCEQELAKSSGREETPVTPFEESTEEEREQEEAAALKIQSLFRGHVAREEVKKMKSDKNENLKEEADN
Description: FIG. 4 consists of three panels. The left panel is a graph that depicts flow cytometry results for ID8 cells incubated with an anti-mouse fluorescein isothiocyanate (FITC) antibody, but without a primary antibody. The middle panel is a graph that depicts flow cytometry results for ID8 cells labeled with the anti-Sp17 antibody chAB2 and the anti-mouse FITC antibody.
as §1

Sp17 protein = biological target: T3, Sp17 protein (Homo sapiens, UniProt Q15506); assay: Western blot detection of Sp17 protein; type: binding; conditions: SDS-PAGE of Sp17 protein
T3 sequence (Q15506 1-151): T1 sequence (Q15506 1-151)
Excerpt: as §1
The VH and VL nucleotide sequences of Example 1 were cloned into a human IgG4 heavy chain gene and a human kappa light chain gene, respectively. A Ser228Pro mutation was introduced in the heavy chain to reduce non-specific Fc receptor gamma binding. The resultant antibody was named SP17-AB2. Successful cloning was confirmed by sequence analysis. The amino acid sequences of the heavy chain and light chain are shown in Table 4, and the Ser228Pro mutation is underlined in SEQ ID NO: 11.

[4] = SK-OV-3 cells at 1000 cells/well
[5] = SK-OV-3 cells at 2000 cells/well
[6] = SK-OV-3 cells at 3000 cells/well

Molecule | IC50 (SK-OV-3 cells; [4]) | Max Cytotoxicity (SK-OV-3 cells; [4]) | IC50 (SK-OV-3 cells; [5]) | Max Cytotoxicity (SK-OV-3 cells; [5]) | IC50 (SK-OV-3 cells; [6]) | Max Cytotoxicity (SK-OV-3 cells; [6]) | Max Cytotoxicity (ID8 cells; ID8 cells at 250 cells/well) | Max Cytotoxicity (ID8 cells; ID8 cells at 500 cells/well) | association rate constant (ka) for chAB2 to Sp17 ([1]; 6.25-300 nanomolar 6His-Sp17) | Kd ([1]; Biacore T200, read-out: dissociation constant (KD)) | binding to normal human tissues / cross-reactivity by immunohistochemistry [2] | reactivity to surface Sp17 on ID8 cells by flow cytometry (mean fluorescent intensity) [3] | binding/detection of Sp17 protein by western blot (Sp17 protein)
CC[C@@]1(O)C(=O)OCc2c1cc1n(c2=O)Cc2c-1nc1cc(F)c(C)c3c1c2[C@@H](NC(=O)COCNC(=O)CNC(=O)[C@H](Cc1ccccc1)NC(=O)CNC(=O)CNC(=O)CCCCCN1C(=O)C=CC1=O)CC3 [deruxtecan] ({Hexanoyl(6-maleimido)}-GGFG[NHCH2OCH2CO]-Exatecan) | 0.75 nM | 98% | 1.1 nM | 97% | 1.2 nM | 97% | 94% | 93% |  |  |  |  | 
B1 |  |  |  |  |  |  |  |  | 62,600 per mole per second | ~2 nM | bound to testis and did not bind to normal tissues; also recorded: lack detectable cross-reactivity | reactive to mouse surface Sp17 protein; also recorded: increased mean fluorescent intensity | Sp17 protein was detected
